Tested on: Hoodia explants
Experiment: In vitro rooting of Hoodia explants on rooting media (basal salts, phytohormones, charcoal)
Assay type: cell-based
Conditions: experiment 11 medium with just IBA or just NAA alone
Method: The explants are placed onto rooting medium 1-2 cm deep in the medium in an erect position. The distance between the explants is the same as for the multiplication phase, although they may be placed closer (i.e. about 0.5-1 cm apart), as they are no longer producing new shoots. The rooted plans are kept in the rooting medium under conditions of darkness at temperature of 26±2° C., typically for about 2-3 weeks, and later are placed under light until roots develop before going into the greenhouse for hardening. In all the multiplication and later rooting trials, the experiments were carried out in a randomised factorial design with at least four replicates per treatment. The student's t-test was used to determine significant difference between the phytohormone treatments. P values ≦0.05 was considered significant. This example investigated various concentrations basal salt medium, vitamins (those in M&S medium, always included at full strength), and various phytohormones on rooting. Each experiment was replicated four times and statistical analysis has been carried out as described above.

Row | SMILES | root formation when experiment 11 was repeated with a single auxin
1 | O=C(O)CCCc1c[nH]c2ccccc12 [IBA, indole-3-butyric acid] | no roots could be obtained
2 | O=C(O)Cc1cccc2ccccc12 [NAA, α-naphthalene acetic acid] | no roots could be obtained

Source: patent publication US20080261310A1, “IN VITRO ROOTING OF HOODIA PLANTS” (CONOPCO, INC., D/B/A/ UNILEVER, priority 2007, published 2008)
